Experimental data taken from patent publication US11261185B2, “Bicyclic heterocyclic derivatives” (Merck Patent GmbH, priority 2015, dated 2022).

Test system: PDH-E1 alpha (pSer300) in HEK293T cells
Assay: Cellular immunofluorescence assay for compound activities (PDH-E1 alpha pSer300)
Format: cell-based, human
Settings: 5 hours incubation, Anti-PDH-E1 alpha (pSer300) immunofluorescence, read-out: IC50 (cell data)
Description: Cellular Assay for Determination of Compound Activities
Compound activities were determined in a cellular immunofluorescence assay. Human HEK293T cells were seeded into black 384-well plates with clear bottom and grown overnight.
Next day, test compounds were added to the wells and the plates incubated for 5 hours. Following this, cells were fixed with formaldehyde, permeabilised and blocked. The primary antibody, Anti-PDH-E1 alpha (pSer300), AP1064 (Merck Millipore) was added and incubated overnight in the plate wells. Next, cells were washed and the seconday antibody, Alexa Fluor 488, goat anti-rabbit ab (A-11008, Invitrogen) was added together with Hoechst 33258 (H3569, Invitrogen) and incubated for 1 hour in the plate wells. Finally, cells were washed and the plates were measured on the laser scanning cytometer acumen hci (TTpLabtech).
The raw data were normalized against a pharmacological inhibitor control and dose response curves were generated by plotting the percent effect values using the software package Genedata screener (Genedata).

SMILES | IC50 [µM]
C[C@@](O)(C(=O)N1CCc2c(ncn2-c2ccc(F)cc2)C1)C(F)(F)F [Compound A44, (R)-3,3,3-Trifluoro-1-[1-(4-fluoro-phenyl)-1,4,6,7-tetrahydro-imidazo[4,5-c]pyridin-5-yl]-2-hydroxy-2-methyl-propan-1-one] | 3 to 50
C[C@@](O)(C(=O)N1CCc2c(ncn2-c2ccc(Cl)cc2)C1)C(F)(F)F [Compound A45, (R)-1-[1-(4-Chloro-phenyl)-1,4,6,7-tetrahydro-imidazo[4,5-c]pyridin-5-yl]-3,3,3-trifluoro-2-hydroxy-2-methyl-propan-1-one] | 3 to 50
